We go through eleven compounds from ChEMBL document CHEMBL1201862, “PubChem BioAssay data set” (2004).

SMILES strings stand for the structures. The source made the active and inactive calls.

In assay [1] the test system is Streptococcus sp. 'group A'. Kind of assay: growth inhibition of control SK(-) GAS strain, dose response, counter-screen for streptokinase expression inhibitor project, luminescence, kanamycin, BacTiterGlo, confirmation (AID 1900). The assay is classed as functional, organism-based. In general terms: Counterscreens check selectivity or assay interference.
The subject of assay [2] is Vero. Kind of assay: cells. The assay is classed as functional. Particulars: Chlorocebus sabaeus.
In a further assay the target is Mucolipin-3 (Homo sapiens, UniProt Q8TDD5). Kind of assay: Dose response cell-based high-throughput screening assay for agonists of the transient receptor potential channel ML3 (TRPML3). [Related pubchem assays: 1526, 1424, 1448 ]. The assay is classed as functional.
For another assay, the system named is Streptococcus. Kind of assay: Group A Streptococcus viability loss, dose response, counter-screen for streptokinase expression inhibitor project, luminescence, BacTiterGlo (AID 1915).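 Note: potency for reduction of bacterial viability or growth.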 The assay is classed as functional, organism-based.
In assay [3] the target is T1, Short transient receptor potential channel 4 (Mus musculus, UniProt Q9QUQ5).
T1 sequence (Q9QUQ5 whole entry): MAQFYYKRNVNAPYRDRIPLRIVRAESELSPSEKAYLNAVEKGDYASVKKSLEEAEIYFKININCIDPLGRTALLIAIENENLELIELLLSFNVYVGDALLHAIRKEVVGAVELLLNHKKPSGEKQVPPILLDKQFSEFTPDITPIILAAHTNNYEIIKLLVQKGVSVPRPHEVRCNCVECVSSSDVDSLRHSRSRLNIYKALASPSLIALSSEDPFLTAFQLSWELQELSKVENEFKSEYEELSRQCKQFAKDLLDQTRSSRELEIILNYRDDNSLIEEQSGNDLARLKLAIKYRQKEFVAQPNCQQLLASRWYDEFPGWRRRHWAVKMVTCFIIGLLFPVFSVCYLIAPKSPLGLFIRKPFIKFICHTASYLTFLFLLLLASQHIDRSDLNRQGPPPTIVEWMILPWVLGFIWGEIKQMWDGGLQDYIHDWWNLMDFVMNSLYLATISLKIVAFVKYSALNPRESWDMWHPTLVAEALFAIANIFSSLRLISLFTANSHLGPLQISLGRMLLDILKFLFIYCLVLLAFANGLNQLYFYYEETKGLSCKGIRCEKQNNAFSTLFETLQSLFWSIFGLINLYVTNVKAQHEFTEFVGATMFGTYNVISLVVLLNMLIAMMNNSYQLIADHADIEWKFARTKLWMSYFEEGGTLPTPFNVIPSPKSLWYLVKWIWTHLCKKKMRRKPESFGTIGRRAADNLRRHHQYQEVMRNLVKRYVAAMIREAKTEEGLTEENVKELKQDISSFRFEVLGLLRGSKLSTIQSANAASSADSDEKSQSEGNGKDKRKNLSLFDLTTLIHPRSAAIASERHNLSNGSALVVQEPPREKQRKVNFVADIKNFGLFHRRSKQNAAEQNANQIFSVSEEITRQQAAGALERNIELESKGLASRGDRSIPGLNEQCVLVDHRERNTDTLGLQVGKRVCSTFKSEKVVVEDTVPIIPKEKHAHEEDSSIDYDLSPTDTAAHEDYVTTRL
Kind of assay: mouse TRPC4 channel activators, dose response, cell-based, HEK293 TRPC4/mu-opioid, Fluo-4 calcium (AID 434937). The assay is classed as functional.

The target in a further assay is Ion channel NompC (Danio rerio, UniProt Q7T1G6). Description: Fluorescence counterscreen assay for TRPML3 agonists: dose response cell-based high-throughput screening assay to identify agonists of the transient receptor potential channel N1 (TRPN1). [Related pubchem assays: 1526, 1424, 1448 ]. The assay is classed as functional.
Assay [4] addresses Lysosomal acid glucosylceramidase (Homo sapiens, UniProt P04062). Kind of assay: Dose response cell-based high throughput screening assay to identify enhancers of beta-glucosidase activity. [Related pubchem assays: 784 ]. The assay is classed as functional.
The next assay concerns the target T2, Streptokinase A (Streptococcus pyogenes serotype M1, UniProt P10520).
T2 sequence (P10520 whole entry): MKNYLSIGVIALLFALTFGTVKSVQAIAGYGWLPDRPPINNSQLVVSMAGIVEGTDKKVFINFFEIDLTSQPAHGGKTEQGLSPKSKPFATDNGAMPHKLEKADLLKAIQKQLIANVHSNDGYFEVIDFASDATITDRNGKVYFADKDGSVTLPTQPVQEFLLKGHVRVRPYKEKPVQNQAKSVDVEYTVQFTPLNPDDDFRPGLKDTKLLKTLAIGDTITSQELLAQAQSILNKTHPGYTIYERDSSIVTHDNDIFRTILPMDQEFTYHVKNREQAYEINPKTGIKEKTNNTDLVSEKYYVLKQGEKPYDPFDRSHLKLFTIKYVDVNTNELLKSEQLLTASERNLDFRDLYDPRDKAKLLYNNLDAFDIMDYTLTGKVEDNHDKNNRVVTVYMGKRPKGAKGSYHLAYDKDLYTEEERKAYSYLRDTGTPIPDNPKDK
Kind of assay: S. pyogenes streptokinase expression inhibitors, potency, dose response, plasminogen activation absorbance, OD405 (AID 1914).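 Note: secreted streptokinase activity via plasminogen activation per viability signal from cell pellet.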 The assay is classed as functional, Streptococcus pyogenes M1 GAS.

The target of assay [5] is T3, Rac GTPase-activating protein 1 (Homo sapiens, UniProt Q9H0H5).
T3 sequence (Q9H0H5 whole entry): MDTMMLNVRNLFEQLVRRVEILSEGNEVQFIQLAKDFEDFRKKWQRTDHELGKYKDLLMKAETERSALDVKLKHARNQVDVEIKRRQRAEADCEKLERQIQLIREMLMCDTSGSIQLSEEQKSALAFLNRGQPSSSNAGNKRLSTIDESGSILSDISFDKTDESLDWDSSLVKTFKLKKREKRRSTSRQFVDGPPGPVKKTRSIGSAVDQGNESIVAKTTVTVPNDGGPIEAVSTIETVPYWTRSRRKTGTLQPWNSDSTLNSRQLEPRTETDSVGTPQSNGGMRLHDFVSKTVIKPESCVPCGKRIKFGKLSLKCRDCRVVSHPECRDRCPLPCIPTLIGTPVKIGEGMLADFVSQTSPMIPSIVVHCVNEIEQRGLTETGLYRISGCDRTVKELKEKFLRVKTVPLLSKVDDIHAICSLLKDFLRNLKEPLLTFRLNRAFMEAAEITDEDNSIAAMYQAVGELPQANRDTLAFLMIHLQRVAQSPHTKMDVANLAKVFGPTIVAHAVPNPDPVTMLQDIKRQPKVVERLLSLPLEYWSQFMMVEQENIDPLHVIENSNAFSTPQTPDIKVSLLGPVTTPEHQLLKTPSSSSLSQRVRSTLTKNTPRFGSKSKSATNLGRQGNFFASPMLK
Kind of assay: MgcRacGAP GTPase-activating activity inhibitors, confirmation, biochemical, ADP Hunter fluorescence, primary and confirmatory (AID 624330). The assay is classed as functional.

Assay [6] relates to Vero. Kind of assay: Vero cell cytotoxicity, cytotoxicity control for flavivirus capping enzyme inhibitors (AID 588742). The assay is classed as functional. Particulars: Chlorocebus sabaeus.
Assay [7] addresses T4, Mannose-6-phosphate isomerase (Homo sapiens, UniProt P34949).
T4 sequence (P34949 whole entry): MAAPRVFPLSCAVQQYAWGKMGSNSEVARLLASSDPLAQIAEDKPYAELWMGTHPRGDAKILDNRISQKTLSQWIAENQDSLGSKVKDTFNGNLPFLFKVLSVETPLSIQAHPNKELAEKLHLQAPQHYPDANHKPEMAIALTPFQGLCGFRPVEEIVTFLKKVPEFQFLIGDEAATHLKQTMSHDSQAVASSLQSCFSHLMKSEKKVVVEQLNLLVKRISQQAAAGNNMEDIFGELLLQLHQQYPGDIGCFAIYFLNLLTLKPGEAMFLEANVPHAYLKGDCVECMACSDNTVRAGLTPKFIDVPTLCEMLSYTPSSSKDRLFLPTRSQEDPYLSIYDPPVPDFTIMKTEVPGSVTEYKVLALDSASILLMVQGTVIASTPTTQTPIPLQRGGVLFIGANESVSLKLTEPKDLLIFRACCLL
Description: human PMI inhibitors, high substrate, primary screen, biochemical, fluorescence intensity, high mannose 6-phosphate (AID 1220).

A short description of assay [8]: M. tuberculosis H37Rv growth inhibitors, H37Rv strain (AID 1626). Format: functional.
A further assay has as its target Cytochrome P450 3A4 (Homo sapiens, UniProt P08684). Particulars: Potency.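 Note: confirmatory qHTS run detecting inhibitors and substrates of CYP3A4.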
A further assay concerns the target Cytochrome P450 2C9 (Homo sapiens, UniProt P11712). To be noted: Potency.
A short description of assay [9]: A Cell Based Secondary Assay To Explore Cytotoxicity of Compounds that Sensitize Mycobacterium Tuberculosis to Beta-Lactam Antibiotics. The assay is classed as functional.
The nature of assay [10]: cytotoxicity toward NIH3T3 fibroblasts, dose response, counter-screen, cell-based, ATP luminescence, mouse fibroblasts (AID 2010).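 Note: cells exposed to compound for about 90 hours before reading.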 Format: functional.
Assay [11] is described as follows: inhibitors of intracellular T. cruzi replication, confirmation, NIH3T3 host cells, beta-gal luminescence (AID 2044).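 Note: intracellular parasites grown in NIH/3T3 mouse fibroblasts as host cells; luminescent beta-galactosidase reporter signal from transgenic T. cruzi replicating inside host cells; inhibitors lower the luminescence signal.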 Format: functional, cell-based.
For assay [12], the target named is T4, Mannose-6-phosphate isomerase. Description: inhibitors of human PMI, primary screen, biochemical, fluorescence intensity, coupled assay (AID 1209).
A further assay addresses Nonstructural protein 1 (Influenza A virus, UniProt Q194T2). The assay is classed as functional, Influenza A virus (A/California/07/2009(H1N1)).
A further assay deals with T5, Aminopeptidase N (Plasmodium falciparum FcB1/Columbia, UniProt O96935).
T5 sequence (O96935 whole entry): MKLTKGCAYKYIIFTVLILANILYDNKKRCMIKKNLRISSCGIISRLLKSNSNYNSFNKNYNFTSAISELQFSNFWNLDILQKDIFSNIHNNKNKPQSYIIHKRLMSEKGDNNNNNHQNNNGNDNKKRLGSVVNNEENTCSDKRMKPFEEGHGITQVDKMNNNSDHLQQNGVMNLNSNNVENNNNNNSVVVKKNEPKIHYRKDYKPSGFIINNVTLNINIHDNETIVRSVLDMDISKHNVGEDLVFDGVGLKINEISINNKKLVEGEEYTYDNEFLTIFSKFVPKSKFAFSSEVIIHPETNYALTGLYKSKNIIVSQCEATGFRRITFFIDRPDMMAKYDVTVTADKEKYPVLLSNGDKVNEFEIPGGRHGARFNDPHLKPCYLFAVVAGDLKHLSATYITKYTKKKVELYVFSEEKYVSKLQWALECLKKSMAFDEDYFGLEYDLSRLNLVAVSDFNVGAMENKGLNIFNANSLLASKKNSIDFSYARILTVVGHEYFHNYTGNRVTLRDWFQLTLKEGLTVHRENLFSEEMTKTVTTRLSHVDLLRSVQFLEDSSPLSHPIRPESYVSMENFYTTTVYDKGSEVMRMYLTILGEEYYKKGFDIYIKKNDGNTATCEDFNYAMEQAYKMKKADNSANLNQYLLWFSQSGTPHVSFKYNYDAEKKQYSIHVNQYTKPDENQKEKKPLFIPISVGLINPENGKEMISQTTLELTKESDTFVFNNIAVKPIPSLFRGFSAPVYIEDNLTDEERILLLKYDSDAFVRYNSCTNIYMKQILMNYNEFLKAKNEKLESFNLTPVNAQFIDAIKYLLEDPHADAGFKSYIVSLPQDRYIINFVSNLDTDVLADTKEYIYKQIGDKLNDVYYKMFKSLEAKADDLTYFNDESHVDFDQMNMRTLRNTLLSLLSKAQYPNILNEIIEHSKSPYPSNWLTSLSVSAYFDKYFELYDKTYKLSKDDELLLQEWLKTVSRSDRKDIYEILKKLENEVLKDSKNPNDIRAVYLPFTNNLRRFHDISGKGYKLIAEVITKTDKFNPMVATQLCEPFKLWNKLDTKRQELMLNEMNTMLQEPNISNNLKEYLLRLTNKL
Kind of assay: P. falciparum M1AAP inhibitors, biochemical, fluorogenic H-Leu-NHMec substrate, 1536-well (AID 1445). More on the design: species or system Plasmodium falciparum 3D7, 3D7.

Sequence of Ion channel NompC (Q7T1G6 whole entry): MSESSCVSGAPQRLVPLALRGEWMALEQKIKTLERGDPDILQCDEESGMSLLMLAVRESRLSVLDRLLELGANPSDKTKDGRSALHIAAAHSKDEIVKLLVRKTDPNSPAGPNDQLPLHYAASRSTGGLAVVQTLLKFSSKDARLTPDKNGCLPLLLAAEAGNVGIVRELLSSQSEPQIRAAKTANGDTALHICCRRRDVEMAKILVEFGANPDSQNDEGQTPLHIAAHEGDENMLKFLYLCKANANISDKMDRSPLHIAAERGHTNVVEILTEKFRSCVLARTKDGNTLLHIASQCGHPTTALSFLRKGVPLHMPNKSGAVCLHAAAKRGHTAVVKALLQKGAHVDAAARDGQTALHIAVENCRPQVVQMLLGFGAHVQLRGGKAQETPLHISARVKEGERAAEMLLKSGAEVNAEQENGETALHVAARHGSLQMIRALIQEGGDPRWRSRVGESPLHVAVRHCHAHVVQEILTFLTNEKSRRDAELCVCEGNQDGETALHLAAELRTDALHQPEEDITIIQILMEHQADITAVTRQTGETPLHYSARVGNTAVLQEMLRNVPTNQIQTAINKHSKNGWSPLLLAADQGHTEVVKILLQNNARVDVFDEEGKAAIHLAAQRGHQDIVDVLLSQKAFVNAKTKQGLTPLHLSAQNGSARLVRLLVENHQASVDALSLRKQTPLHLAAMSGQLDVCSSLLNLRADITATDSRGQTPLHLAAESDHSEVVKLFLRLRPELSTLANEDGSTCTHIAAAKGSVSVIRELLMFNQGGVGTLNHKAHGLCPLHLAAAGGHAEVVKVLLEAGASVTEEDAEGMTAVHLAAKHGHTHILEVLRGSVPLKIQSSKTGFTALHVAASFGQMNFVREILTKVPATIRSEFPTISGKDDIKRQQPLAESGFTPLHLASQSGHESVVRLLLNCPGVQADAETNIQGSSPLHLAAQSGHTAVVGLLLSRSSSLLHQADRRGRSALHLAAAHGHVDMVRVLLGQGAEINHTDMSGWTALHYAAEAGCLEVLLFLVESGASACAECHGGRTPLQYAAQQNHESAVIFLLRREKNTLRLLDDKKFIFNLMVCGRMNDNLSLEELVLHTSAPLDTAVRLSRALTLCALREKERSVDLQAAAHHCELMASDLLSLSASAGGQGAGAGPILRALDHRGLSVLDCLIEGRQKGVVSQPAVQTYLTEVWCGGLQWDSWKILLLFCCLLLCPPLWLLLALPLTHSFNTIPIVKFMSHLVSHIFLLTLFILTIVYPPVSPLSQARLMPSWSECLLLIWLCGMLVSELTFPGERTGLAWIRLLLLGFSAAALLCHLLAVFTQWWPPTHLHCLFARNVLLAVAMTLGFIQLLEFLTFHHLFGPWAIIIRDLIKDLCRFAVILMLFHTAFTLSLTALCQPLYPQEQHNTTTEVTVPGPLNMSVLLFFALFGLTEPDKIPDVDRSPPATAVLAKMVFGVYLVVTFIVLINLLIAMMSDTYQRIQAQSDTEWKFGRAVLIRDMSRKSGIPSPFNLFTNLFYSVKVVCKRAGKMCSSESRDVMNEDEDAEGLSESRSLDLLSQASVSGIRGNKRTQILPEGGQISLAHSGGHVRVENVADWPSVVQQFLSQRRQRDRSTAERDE
Sequence of Mucolipin-3 (Q8TDD5 whole entry): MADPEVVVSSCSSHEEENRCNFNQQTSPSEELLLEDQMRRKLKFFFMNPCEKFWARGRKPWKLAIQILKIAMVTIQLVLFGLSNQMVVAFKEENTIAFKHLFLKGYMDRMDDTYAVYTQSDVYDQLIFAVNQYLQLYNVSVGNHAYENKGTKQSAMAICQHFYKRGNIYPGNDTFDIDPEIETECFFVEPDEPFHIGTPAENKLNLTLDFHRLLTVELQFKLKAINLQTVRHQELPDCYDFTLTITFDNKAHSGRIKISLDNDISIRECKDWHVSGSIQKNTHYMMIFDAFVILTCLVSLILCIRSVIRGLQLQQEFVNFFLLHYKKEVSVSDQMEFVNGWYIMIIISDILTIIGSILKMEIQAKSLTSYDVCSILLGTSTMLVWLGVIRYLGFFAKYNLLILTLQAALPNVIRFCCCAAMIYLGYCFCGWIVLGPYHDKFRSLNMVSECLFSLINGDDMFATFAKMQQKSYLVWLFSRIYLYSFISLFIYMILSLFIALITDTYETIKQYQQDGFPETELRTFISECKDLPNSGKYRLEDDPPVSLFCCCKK
Sequence of Lysosomal acid glucosylceramidase (P04062 whole entry): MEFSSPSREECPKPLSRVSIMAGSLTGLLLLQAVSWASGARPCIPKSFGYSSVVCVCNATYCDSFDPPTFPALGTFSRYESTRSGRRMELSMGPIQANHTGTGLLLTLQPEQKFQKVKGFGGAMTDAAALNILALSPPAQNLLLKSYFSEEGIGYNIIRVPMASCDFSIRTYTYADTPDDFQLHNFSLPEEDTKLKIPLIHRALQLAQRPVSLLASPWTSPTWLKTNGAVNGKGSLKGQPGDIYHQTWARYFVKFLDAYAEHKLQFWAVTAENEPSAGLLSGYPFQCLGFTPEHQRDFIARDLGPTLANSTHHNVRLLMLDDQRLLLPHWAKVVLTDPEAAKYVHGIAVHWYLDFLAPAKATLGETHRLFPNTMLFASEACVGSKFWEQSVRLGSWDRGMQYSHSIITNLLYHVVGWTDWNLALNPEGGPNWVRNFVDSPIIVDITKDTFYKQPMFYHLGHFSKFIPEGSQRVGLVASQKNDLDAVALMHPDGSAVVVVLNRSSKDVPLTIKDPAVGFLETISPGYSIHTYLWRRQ
Sequence of Cytochrome P450 2C9 (P11712 whole entry): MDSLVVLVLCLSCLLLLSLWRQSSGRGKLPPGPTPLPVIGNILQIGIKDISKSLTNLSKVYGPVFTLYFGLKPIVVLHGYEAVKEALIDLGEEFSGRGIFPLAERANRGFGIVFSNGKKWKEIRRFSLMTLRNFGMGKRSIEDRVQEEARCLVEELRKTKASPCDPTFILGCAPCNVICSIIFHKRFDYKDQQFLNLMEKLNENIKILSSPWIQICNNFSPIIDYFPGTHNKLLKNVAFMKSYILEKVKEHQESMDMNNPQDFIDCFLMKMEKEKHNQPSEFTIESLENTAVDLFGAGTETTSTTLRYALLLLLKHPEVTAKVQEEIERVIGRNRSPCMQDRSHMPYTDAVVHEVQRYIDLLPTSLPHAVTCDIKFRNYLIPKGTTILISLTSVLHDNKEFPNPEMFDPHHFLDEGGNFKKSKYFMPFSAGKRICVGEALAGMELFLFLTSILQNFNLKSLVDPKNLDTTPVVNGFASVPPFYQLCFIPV
Sequence of Nonstructural protein 1 (Q194T2 whole entry): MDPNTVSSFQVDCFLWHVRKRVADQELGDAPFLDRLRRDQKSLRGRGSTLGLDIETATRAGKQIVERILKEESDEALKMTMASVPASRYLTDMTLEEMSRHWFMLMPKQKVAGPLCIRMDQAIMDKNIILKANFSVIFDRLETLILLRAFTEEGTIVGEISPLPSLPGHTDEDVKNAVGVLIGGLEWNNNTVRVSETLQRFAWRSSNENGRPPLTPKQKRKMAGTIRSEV
Sequence of Cytochrome P450 3A4 (P08684 whole entry): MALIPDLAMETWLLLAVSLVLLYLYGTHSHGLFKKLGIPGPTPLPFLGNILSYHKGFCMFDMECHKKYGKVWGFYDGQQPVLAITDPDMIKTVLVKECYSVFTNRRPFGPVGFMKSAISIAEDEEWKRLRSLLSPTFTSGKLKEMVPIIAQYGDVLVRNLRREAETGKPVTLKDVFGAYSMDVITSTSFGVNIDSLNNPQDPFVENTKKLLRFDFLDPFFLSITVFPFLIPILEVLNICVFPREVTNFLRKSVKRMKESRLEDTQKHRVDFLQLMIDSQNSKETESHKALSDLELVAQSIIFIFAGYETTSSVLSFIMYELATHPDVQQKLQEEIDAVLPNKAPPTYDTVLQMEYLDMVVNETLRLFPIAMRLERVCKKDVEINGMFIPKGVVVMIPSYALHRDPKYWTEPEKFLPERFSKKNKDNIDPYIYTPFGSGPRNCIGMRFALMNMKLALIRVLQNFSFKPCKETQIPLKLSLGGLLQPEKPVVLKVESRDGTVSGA

Consider `COc1ccc(C(=O)NC(=S)NNC(=O)c2c(-c3ccccc3)noc2C)cc1OC`, for which the EC50 in [1] was 0.62 µM (active); on Mucolipin-3 it was 7.51 µM (active); with Streptococcus, 7.7 µM (active); in assay [3], 6.68 µM (active); at Ion channel NompC, 7.42 µM (active). Also, in the assay on Vero [2], the CC50 is 17.2 µM (active).
`CCOC(=O)C1CCN(C(=O)c2ccc(NC(=O)C3CCCO3)cc2)CC1` (stereo not drawn): the EC50 in [4] was > 50 µM (not active).
In the case of `Oc1c(Cl)cc(Cl)c2c1NCCC2`, the EC50 was 5.36 µM (active) in [1], > 150 µM (not active) at Streptokinase A and 85.5 µM (active) in the assay on Streptococcus. For the same compound, the IC50 was 31.4 µM (active) in [5] and 25.3 µM (active) in assay [7]. For the same compound, the CC50 in the assay with Vero [6] was 34.5 µM (active).
Regarding `Cc1ccccc1NC(=O)Nc1cccs1`, in assay [4], the EC50 was > 50 µM (not active).
With `CCOc1ccc(NC(=O)CCN2CCN(c3ccccc3)CC2)cc1`, the IC50 in [8] was > 100 µM (active).
Regarding `CN(C)c1ncc(S(=O)(=O)c2ccccc2)c(-c2ccc(Cl)cc2Cl)n1`, the EC50 was 1.87 µM (active) on Mucolipin-3 and > 29.9 µM (not active) on Ion channel NompC.
As for `C/C=C/OC(=O)NC(c1ccccc1)[C@]1(C(C)=O)CCCC1=O` (stereo partly drawn), the figures for the AC50 at Cytochrome P450 3A4 and on Cytochrome P450 2C9 were 0.126 µM (inconclusive) and 3.98 µM (inconclusive), respectively.
As to `COc1ccc2c(c1)c(CC(=O)Nc1ccc(C)cc1)c(C)n2C(=O)c1ccc(Cl)cc1`, in [9], the CC50 is > 40 µM (active). The EC50 in assay [10] was > 60 µM (not active); in [11] it was 1.04 µM (active).
In the case of `CC(C)[C@H]1C(=O)N2CCC[C@@H]2[C@]2(O)O[C@@](NC(=O)[C@H]3C=C4c5cccc6[nH]cc(c56)C[C@H]4N(C)C3)(C(C)C)C(=O)N12`, the AC50 at Cytochrome P450 2C9 is 25.1 µM (inconclusive).
As for `NC(=S)N/N=C/c1cccc(O)c1O`, the values for the concentration for half-maximal inhibition (IC50) (in assay [5]; in assay [12]; at Nonstructural protein 1) were 31.5 µM (active), 11 µM (active) and 4.5 µM (active), respectively.
As to `N#C/C(=C(/O)CSc1nnc(Cc2cccs2)n1C1CCCCC1)c1nc2ccccc2[nH]1`, the IC50 is > 100 µM (active) in assay [8] and 78.9 µM (active) at Aminopeptidase N.

Broadly, the EC50 is the concentration giving half of the maximal effect. By CC50 is commonly meant the concentration giving 50% cytotoxicity. A word on the IC50: it is the concentration that gives 50% inhibition. For orientation: AC50 means the concentration giving half of the maximal activity seen.
